Experimental data as given in article PMC6936217 (Science translational medicine, 2019).
Where two headings read alike, the source gives them in different places.

Tests used:
EBNA1 = EBNA1 (Epstein-Barr virus, UniProt P03211); assay: ALPHA proximity DNA binding assay
15N-labeled EBNA1 = 15N-labeled EBNA1 (Epstein-Barr virus, UniProt P03211); assay: HSQC NMR with 15N-labeled EBNA1; assay type: binding; settings: 50 μM ligand
[1] = read-out: IC50, inhibition of EBNA1 DNA binding, ALPHA proximity assay

EBNA1, sequence (P03211 459-607): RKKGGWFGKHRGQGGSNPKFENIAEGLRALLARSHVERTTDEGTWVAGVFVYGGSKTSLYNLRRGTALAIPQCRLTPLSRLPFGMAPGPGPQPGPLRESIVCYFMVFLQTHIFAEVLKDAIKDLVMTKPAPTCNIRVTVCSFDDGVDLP
15N-labeled EBNA1, sequence (P03211 459-607): as above

Compound	IC50 (EBNA1)	IC50 (EBNA1; [1])	binding to EBNA1 by chemical shift changes (15N-labeled EBNA1)
O=C(O)c1cncc(C#Cc2ccccc2)c1 [VK-0044, 5-phenylacetylenyl nicotinic acid]	110000 nM	–	–
O=C(O)c1ccccc1-n1cccc1 [VK-0064, 2-pyrrolo-benzoic acid]	–	2000 nM	–
O=C(O)c1cccc(C#Cc2ccccc2)c1-n1cccc1 [VK-0497, 2-pyrrolo-3-phenylacetylenyl benzoic acid]	–	890 nM	direct binding
